Results on 1 molecule are retold here after PMC5065108 (Molecular cancer therapeutics, 2016).

Experiment [1] addresses p210 BCR-ABL T315I (p210^T315I) (Homo sapiens, UniProt P00519, T315I). The experiment can be described thus: Western blot of phospho-c-ABL. Format: cell-based. Background: Immunoblotting shows a protein as a band on a membrane.
The target in experiment [2] is p210 BCR-ABL (wild type) (Homo sapiens, UniProt P00519). Description: Western blot of phospho-c-ABL. Format: cell-based.

For `Cc1cnc(Nc2ccc(N3CCN(C)CC3)cc2)nc1Nc1cccc(S(=O)(=O)NC(C)(C)C)c1` [TG101209], the concentration for half-maximal inhibition (IC50) (in general, the concentration that gives 50% inhibition) was 17.5 µM in experiment [1] and 2.5 µM in experiment [2].
